Here are results for seven molecules from patent US12570655B2, “Cysteine covalent modifiers of AKT1 and uses thereof” (Terremoto Biosciences, Inc., priority 2023, dated 2026).

Like-named read-outs stand apart in the source and are kept apart here.

Format in all cases: cell-based
For assay [1], the target named is T1, AKT2 (Homo sapiens, UniProt P31751).
T1 construct: expressed in transfected cells; host or cells: HEK293
The assay can be described thus: Live cell AKT2 target engagement by NanoBRET competitive probe displacement. The settings on record: HEK293 cells transfected with kinase-NanoLuciferase fusion, 2 h at 37° C. The protocol: Determining Live Cell AKT1 E17K, AKT1 WT, and AKT2 Target Engagement by NanoBRET Competitive Probe Displacement.
Live cell target engagement assays were performed as described (Vasta, J. D. et al. Cell Chem Biol 2018, 25(11), 206-214). Briefly, HEK293 cells were transfected with plasmids encoding kinase-NanoLuciferase fusion proteins overnight. Cells were then treated with serial dilutions of compound and an ˜EC50 concentration of fluorescently-tagged ATP-competitive tracer (Promega). After incubation for 2 h at 37° C., luciferase substrate and extracellular luciferase inhibitor were added to all wells, and luminescent intensity at 460 nm and 600 nm were measured on a multimode plate-reader. The ratio of E600/E460 was calculated to give the tracer engagement signal (BRET). IC50 values were calculated by fitting BRET values to a log(inhibitor) vs. response Hill equation.

For assay [2], the system named is LAPC4 prostate cancer cells. In words: Antiproliferative effects in LAPC4 cells (CellTiter Glo). Conditions: LAPC4 cells (AKT1 E17K allele), read-out: LAPC4 proliferation IC50. The method, boiled down: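 IC50 values reflect 72 h compound treatment of cells plated at 1,000 per well, with CellTiter Glo luminescence as the viability read-out.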
Assay [3] addresses T2, AKT1 E17K (Homo sapiens, UniProt P31749, E17K).
T2 construct: expressed in transfected cells; host or cells: HEK293
In words: Live cell AKT1 E17K target engagement by NanoBRET competitive probe displacement. The settings on record: HEK293 cells transfected with kinase-NanoLuciferase fusion, 2 h at 37° C. Summed up: (§1)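 Luminescence ratio 600/460 nm served as readout after HEK293 cells bearing transiently expressed kinase–NanoLuciferase fusions were exposed 2 h at 37 °C to test compound alongside an ATP-competitive fluorescent tracer near EC50. Extracellular signal was quenched by a luciferase inhibitor.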
A general note: Bioluminescence resonance energy transfer reports proximity on the nanometre scale.

The target in assay [4] is T3, AKT1 WT (Homo sapiens, UniProt P31749).
T3 construct: expressed in transfected cells; host or cells: HEK293
In words: Live cell AKT1 WT target engagement by NanoBRET competitive probe displacement. The settings on record: HEK293 cells transfected with kinase-NanoLuciferase fusion, 2 h at 37° C. The method, boiled down: as §1

T1 sequence (P31751 whole entry): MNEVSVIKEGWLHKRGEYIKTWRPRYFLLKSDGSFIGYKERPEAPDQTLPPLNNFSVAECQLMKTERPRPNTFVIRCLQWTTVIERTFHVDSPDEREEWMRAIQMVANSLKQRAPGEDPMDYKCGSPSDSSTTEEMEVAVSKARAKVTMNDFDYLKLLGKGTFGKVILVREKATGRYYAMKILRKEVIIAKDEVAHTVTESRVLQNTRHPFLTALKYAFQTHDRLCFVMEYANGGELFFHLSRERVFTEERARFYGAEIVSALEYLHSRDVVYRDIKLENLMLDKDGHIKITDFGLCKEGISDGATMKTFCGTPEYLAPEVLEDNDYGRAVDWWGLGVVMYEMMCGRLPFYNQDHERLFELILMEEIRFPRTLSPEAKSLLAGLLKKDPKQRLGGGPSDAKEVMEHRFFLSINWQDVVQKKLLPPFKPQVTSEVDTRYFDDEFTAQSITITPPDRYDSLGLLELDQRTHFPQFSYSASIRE
T2 sequence (P31749 whole entry E17K): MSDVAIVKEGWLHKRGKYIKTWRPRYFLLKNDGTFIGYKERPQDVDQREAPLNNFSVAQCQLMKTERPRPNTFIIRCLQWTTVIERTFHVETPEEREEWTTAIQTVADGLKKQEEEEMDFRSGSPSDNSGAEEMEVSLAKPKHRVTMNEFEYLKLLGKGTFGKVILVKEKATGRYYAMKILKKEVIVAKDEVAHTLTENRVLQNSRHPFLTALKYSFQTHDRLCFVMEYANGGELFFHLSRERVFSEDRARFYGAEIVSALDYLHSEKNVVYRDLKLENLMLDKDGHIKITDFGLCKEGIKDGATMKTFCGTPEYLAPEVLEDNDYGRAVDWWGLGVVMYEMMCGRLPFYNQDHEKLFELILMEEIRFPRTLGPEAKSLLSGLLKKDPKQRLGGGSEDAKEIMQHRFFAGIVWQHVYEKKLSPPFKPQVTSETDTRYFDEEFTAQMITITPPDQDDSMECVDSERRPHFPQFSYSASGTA
T3 sequence (P31749 whole entry): as the sequence (P31749 whole entry E17K) above, with K17E counted along it

`C=CC(=O)N1CCC(N[C@H]2CCc3cc(-n4c(-c5cccnc5N)nc5ccc(-n6cccn6)nc54)ccc32)C(F)(F)C1` (single isomer, unassigned) [Example 55, 1-((*)-4-(((S)-5-(2-(2-aminopyridin-3-yl)-5-(1H-pyrazol-1-yl)-3H-imidazo[4,5-b]pyridin-3-yl)-2,3-dihydro-1H-inden-1-yl)amino)-3,3-difluoropiperidin-1-yl)prop-2-en-1-one]: the IC50 in assay [1] stood at 1120 nM; in assay [2] (72 h), 617 nM; in assay [3] it was 215 nM; in assay [4], 93.7 nM.

Regarding `C=CC(=O)N1CCC(N[C@H]2CCc3cc(-n4c(-c5cccnc5N)nc5ccc(-n6cccn6)nc54)ccc32)C(O)C1` (single isomer, unassigned) [Example 141, 1-[(3*,4*)-4-{[(1S)-5-[2-(2-aminopyridin-3-yl)-5-(pyrazol-1-yl)imidazo[4,5-b]pyridin-3-yl]-2,3-dihydro-1H-inden-1-yl]amino}-3-hydroxypiperidin-1-yl]prop-2-en-1-one], the IC50 in assay [1] was found to be 872 nM; in assay [2] (72 h), 1700 nM; in assay [3], 554 nM; in assay [4], 148 nM.

In the case of `C=C(F)C(=O)Nc1ccccc1C(=O)N[C@H]1CCc2cc(-n3c(-c4cccnc4N)nc4ccc(-n5cccn5)nc43)ccc21` [Example 5, (S)-N-(5-(2-(2-aminopyridin-3-yl)-5-(1H-pyrazol-1-yl)-3H-imidazo[4,5-b]pyridin-3-yl)-2,3-dihydro-1H-inden-1-yl)-2-(2-fluoroacrylamido)benzamide], the IC50 in assay [1] stood at 271 nM; in assay [2] (Homo sapiens, LAPC4, 72 h) it was 310 nM; in assay [3], 46.2 nM; in assay [4], 19.4 nM.

For `Nc1ncccc1-c1nc2ccc(-n3cccn3)nc2n1-c1ccc2c(c1)CC[C@@H]2NC1CCN(C(=O)CCl)CC1` [Example 197, 1-(4-{[(1S)-5-[2-(2-aminopyridin-3-yl)-5-(pyrazol-1-yl)imidazo[4,5-b]pyridin-3-yl]-2,3-dihydro-1H-inden-1-yl]amino}piperidin-1-yl)-2-chloroethanone], the IC50 came out at 28.6 nM in assay [1]; 469 nM in assay [2] (Homo sapiens, LAPC4, 72 h); 18.9 nM in assay [3]; 121 nM in assay [4].

Consider `C=CC(=O)N1CCC(N[C@@H]2c3ccc(-n4c(-c5ccccc5)nc5ccc(-c6ccccc6)nc54)cc3CC2F)CC1` (single isomer, unassigned) [Example 324, 1-(4-{[(1R,2*)-5-{2,5-diphenylimidazo[4,5-b]pyridin-3-yl}-2-fluoro-2,3-dihydro-1H-inden-1-yl]amino}piperidin-1-yl)prop-2-en-1-one], for which the IC50 in assay [1] came to 88.1 nM; in assay [3], 16.3 nM; in assay [4], 396 nM.

For the molecule `C=CC(=O)N1CCC(CC2CCc3cc(-n4c(-c5cccnc5N)nc5ccc(-n6cccn6)nc54)ccc32)CC1` (single isomer, unassigned) [Example 344, 1-(4-(((*)-5-(2-(2-aminopyridin-3-yl)-5-(1H-pyrazol-1-yl)-3H-imidazo[4,5-b]pyridin-3-yl)-2,3-dihydro-1H-inden-1-yl)methyl)piperidin-1-yl)prop-2-en-1-one], the IC50 in assay [1] stood at 549 nM; in assay [3], 21.4 nM; in assay [4], 418 nM.

Turning to `C=CC(=O)N1CCC(N[C@@H]2c3ccc(-n4c(-c5ccccc5)nc5ccc(-n6cccn6)nc54)cc3CC2F)CC1C(F)F` (single isomer, unassigned) [Example 331, 1-((2*,4*)-2-(difluoromethyl)-4-(((1R,2*)-2-fluoro-5-(2-phenyl-5-(1H-pyrazol-1-yl)-3H-imidazo[4,5-b]pyridin-3-yl)-2,3-dihydro-1H-inden-1-yl)amino)piperidin-1-yl)prop-2-en-1-one], the IC50 stood at 128 nM in assay [1], 18.1 nM in assay [3] and 807 nM in assay [4].
